As usually defined, the IC50 is the point on the concentration scale where inhibition reaches its midpoint. For orientation: inhibition means the relative decrease from the control value, in per cent.

The target in one assay is T1, epidermal growth factor receptor tyrosine kinase (Homo sapiens, UniProt P00533).
T1 construct: A native 170,000 epidermal growth factor receptor-kinase complex from shed plasma membrane vesicles; endogenous in cells
T1 sequence (P00533 25-1210): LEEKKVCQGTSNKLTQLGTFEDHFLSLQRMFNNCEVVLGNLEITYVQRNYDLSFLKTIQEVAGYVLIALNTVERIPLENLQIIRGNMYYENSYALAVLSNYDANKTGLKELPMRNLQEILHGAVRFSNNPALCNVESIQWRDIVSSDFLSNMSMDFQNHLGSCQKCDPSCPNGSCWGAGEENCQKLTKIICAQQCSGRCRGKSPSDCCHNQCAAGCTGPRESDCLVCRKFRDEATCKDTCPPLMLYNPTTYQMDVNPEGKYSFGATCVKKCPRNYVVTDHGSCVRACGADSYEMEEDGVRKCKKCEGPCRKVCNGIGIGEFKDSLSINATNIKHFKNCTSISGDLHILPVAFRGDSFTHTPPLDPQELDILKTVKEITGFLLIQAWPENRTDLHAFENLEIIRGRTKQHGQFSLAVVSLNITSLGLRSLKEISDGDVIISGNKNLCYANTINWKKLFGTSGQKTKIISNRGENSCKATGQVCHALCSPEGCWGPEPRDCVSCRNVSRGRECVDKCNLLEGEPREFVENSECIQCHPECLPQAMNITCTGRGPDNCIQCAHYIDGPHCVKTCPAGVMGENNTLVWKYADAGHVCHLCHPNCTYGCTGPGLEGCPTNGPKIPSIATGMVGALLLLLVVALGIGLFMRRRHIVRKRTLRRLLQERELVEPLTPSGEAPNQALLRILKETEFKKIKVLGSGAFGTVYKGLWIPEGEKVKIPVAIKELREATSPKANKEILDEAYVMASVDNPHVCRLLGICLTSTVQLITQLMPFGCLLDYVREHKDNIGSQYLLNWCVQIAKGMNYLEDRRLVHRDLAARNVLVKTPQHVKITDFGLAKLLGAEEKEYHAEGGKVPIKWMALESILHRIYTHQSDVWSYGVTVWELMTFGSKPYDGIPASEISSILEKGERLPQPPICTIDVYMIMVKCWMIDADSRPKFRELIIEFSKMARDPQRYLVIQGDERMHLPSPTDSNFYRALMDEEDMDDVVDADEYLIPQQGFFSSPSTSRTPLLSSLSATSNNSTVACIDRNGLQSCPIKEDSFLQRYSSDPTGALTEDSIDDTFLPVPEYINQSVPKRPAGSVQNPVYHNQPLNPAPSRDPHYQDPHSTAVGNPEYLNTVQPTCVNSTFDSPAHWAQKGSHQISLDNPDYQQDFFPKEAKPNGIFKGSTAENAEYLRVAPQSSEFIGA
T1 sequence (P01133 971-1023 partner limits assumed): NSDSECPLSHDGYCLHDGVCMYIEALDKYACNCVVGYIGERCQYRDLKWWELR
Kind of assay: EGF receptor tyrosine kinase assay (P^32 incorporation in GAT).
Settings: not given
In kind it is biochemical. The protocol: At the time of assay, membranes were solubilized in 4% Triton X-100 and glycerol. The reaction is carried out in wells of a 96-well microtiter plate in a total volume of […]. Buffer containing 20 mMHepes (pH 7.4), 15 mMMgCl2, mM MnCl2, and 0.02% BSA followed by […] of membrane protein and 150 ng of epidermal growth factor. The plates are incubated for 10 minutes at room temperature to activate the receptor kinase. […] ATP plus or minus compound are added and incubated 10 minutes at room temperature.
`O=[N+]([O-])CCc1c(SSc2[nH]c3ccccc3c2CC[N+](=O)[O-])[nH]c2ccccc12` [Compound 49, 2,2'-dithiobis[3-(2-nitroethyl)indole]] had an IC50 of 84.1 µM.

Staying with this assay, now noted: Table 2, EGRF-R; IC50 entries; read-out: IC50 (EGFR TK).
With `O=C(O)CC1C(=S)Nc2ccccc21` (stereo not shown) [Compound 1, 2-(2-thioxo-3-indolinyl)acetic acid], the IC50 was 14.9 µM.

Turning to `CN1C(=S)C(CCC(=O)O)c2ccccc21` (stereo not shown) [Compound 8, 3-(1-methyl-2-thioxo-3-indolinyl)propanoic acid], the IC50 was 8.5 µM.

With `NC(=O)CCC1C(=S)Nc2ccccc21` (stereo not shown) [Compound 14, 3-(2-thioxo-3-indolinyl)propanamide], the IC50 was found to be 22 µM.

Turning to `O=C(O)CCCC1C(=S)Nc2ccccc21` (stereo not shown) [Compound 15, 4-(2-thioxo-3-indolinyl)butanoic acid], the IC50 came to 6.8 µM.

Turning to `CN1C(=S)C(CCCC(=O)O)c2ccccc21` (stereo not shown) [Compound 16, 4-(1-methyl-2-thioxo-3-indolyl) butanoic acid], the IC50 amounted to 23 µM.

On to `CN1C(=S)C(C(=O)Nc2ccccc2)c2cc(Cl)ccc21` (stereo not shown) [Compound 20, N-phenyl 5-chloro-1-methyl-2-thioxoindole-3-carboxamide], for which the IC50 turned out to be 9 µM.

With `CN1C(=S)C(C(=O)c2ccc(C(=O)O)cc2)c2ccccc21` (stereo not shown) [Compound 25, 3-(4'-carboxybenzoyl)-1-methyl-2-indolinethione], the IC50 turned out to be 8.7 µM.

Turning to `Cn1c(SSc2c(CCC(=O)O)c3ccccc3n2C)c(CCC(=O)O)c2ccccc21` [Compound 37], the IC50 came to 3.3 µM.

Consider `Cc1ccc2c(CCC(=O)O)c(SSc3[nH]c4cc(C)ccc4c3CCC(=O)O)[nH]c2c1` [Compound 43, bis[methylindolyl-3-propanoate-(2)]disulfide], for which the IC50 is 2.9 µM.

`Cc1cccc2c(CCC(=O)O)c(SSc3[nH]c4c(C)cccc4c3CCC(=O)O)[nH]c12` [Compound 45, bis[7-methylindolyl-3-propanoic acid-(2)] disulfide]: the IC50 was determined as 1.6 µM.

Consider `N#CCCc1c(SSc2[nH]c3ccccc3c2CCC#N)[nH]c2ccccc12` [Compound 48, 2,2'-dithiobis[3-indolylpropionitrile]], for which the IC50 turned out to be 35.5 µM.

Staying with this assay, now noted: at 100 μM; EGRF-R; read-out: % Inhibition at 100 μM (EGFR TK).
On to `CC(=O)NC(Cc1c(SSc2[nH]c3ccccc3c2CC(NC(C)=O)C(=O)NCc2ccccc2)[nH]c2ccccc12)C(=O)NCc1ccccc1` (racemic) [Compound 60], for which the inhibition at 100 µM amounted to 53%.

As for `CN1C(=S)C(CC(=O)O)c2ccccc21` (stereo not shown) [Compound 2, 2-(1-methyl-2-thioxo-3-indolinyl)acetic acid], the inhibition at 100 µM was 26%.

`COC(=O)CC1C(=S)N(C)c2ccccc21` (stereo not shown) [Compound 4, methyl 2-(1-methyl-2-thioxo-3-indolinyl)acetate]: the inhibition at 100 µM turned out to be 27%.

Take `CCOC(=O)CC1C(=S)N(C)c2ccccc21` (stereo not shown) [Compound 5, ethyl 2-(1-methyl-2-thioxo-3-indolinyl)acetate]: the inhibition at 100 µM came out at 4%.

Consider `COC(=O)CCC1C(=S)N(C)c2ccccc21` (stereo not shown) [Compound 11, methyl 3-(1-methyl-2-thioxo-3-indolinyl)propanoate], for which the inhibition at 100 µM came to 24%.

On to `CCOC(=O)CCC1C(=S)N(C)c2ccccc21` (stereo not shown) [Compound 12, ethyl 3-(1-methyl-2-thioxo-3-indolinyl)propanoate], for which the inhibition at 100 µM is 3%.

For `O=C(CCC1C(=S)Nc2ccccc21)NCc1ccccc1` (stereo not shown) [Compound 13, N-benzyl 3-(2-thioxo-3-indolinyl) propanamide], the inhibition at 100 µM came to 43%.

Take `COC(=O)CCCC1C(=S)Nc2ccccc21` (stereo not shown) [Compound 17, methyl 4-(2-thioxo-3-indolinyl)butanoate]: the inhibition at 100 µM came out at 12.5%.

Consider `Cn1c(S)c(C(=O)Nc2ccccc2)c2cccnc21` [Compound 19, N-phenyl (1-methyl-7-aza-2-thioxo-3-indolinyl)carboxamide], for which the inhibition at 100 µM amounted to 10%.

For the compound `CCOC(=O)CCc1c(SSc2[nH]c3ccc(C)cc3c2CCC(=O)OCC)[nH]c2ccc(C)cc12` [Compound 42, bis[ethyl 5-methylindolyl-3-propanoate-(2)]disulfide], the inhibition at 100 µM worked out at 26%.

The record behind these values is US5464861A, “2-thioindoles (selenoindoles) and related disulfides (selenides) which inhibit protein tyrosine kinases and which have antitumor properties” (Warner-Lambert, priority 1993, dated 1995).
